This is an account of results in patent publication US7041681B2, “Compounds as opioid receptor modulators” (Janssen Pharmaceutica N.V., priority 2002, dated 2006).

Structures are written as SMILES.

One assay addresses T1, mu opioid receptor (Rattus norvegicus, UniProt P33535).
T1 construct: from tissue; host or cells: rat forebrain homogenate (Wistar rat)
The experiment in a line: Rat Brain mu Opioid Receptor Binding Assay. The settings on record: rat forebrain membranes, ~0.8 nM [3H]DAMGO, 25° C., 2.5 h; read-out: μ-opioid binding (Ki). As to the method:
(§1) Male, Wistar rats (150–250 g, VAF, Charles River, Kingston, N.Y.) are killed by cervical dislocation, and their brains removed and placed immediately in ice cold Tris HCl buffer (50 mM, pH 7.4). The forebrains are separated from the remainder of the brain by a coronal transection, beginning dorsally at the colliculi and passing ventrally through the midbrain-pontine junction. After dissection, the forebrains are homogenized in Tris buffer in a Teflon®-glass homogenizer. The homogenize is diluted to a concentration of 1 g of forebrain tissue per 80 mL Tris and centrifuged at 39,000×g for 10 min. The pellet is resuspended in the same volume of Tris buffer containing 5 mM MgCl2 with several brief pulses from a Polytron homogenizer. This particulate preparation is used for the mu-opioid binding assays. Following incubation with the mu selective peptide ligand ˜0.8 nM [^3H]DAMGO at 25° C. for 2.5 h in a 96-well plate with total 1 ml, the plate contents are filtered through Wallac filtermat B sheets on a Tomtec 96-well harvester. The filters are rinsed three times with 2 mL of 10 mM HEPES (pH7.4), and dried in a microwave oven 1:45 min twice. To each sample area 2×40 μl of Betaplate Scint scintillation fluid (LKB) is added and analyzed on a LKB (Wallac) 1205 BetaPlate liquid scintillation counter.
(§2) The data are used to calculate either the % inhibition compared to control binding (when only a single concentration of test compound is evaluated) or a Ki value (when a range of concentrations is tested). % inhibition is calculated as: [(total dpm-test compound dpm dpm)/(total dpm-nonspecific dpm)]*100. Kd and Ki values were calculated using GraphPad PRISM data analysis program.

For the next assay, the target named is T2, delta opioid receptor (Rattus norvegicus, UniProt P33533).
T2 construct: from tissue; host or cells: rat forebrain homogenate (Wistar rat)
T2 sequence (P33533 whole entry): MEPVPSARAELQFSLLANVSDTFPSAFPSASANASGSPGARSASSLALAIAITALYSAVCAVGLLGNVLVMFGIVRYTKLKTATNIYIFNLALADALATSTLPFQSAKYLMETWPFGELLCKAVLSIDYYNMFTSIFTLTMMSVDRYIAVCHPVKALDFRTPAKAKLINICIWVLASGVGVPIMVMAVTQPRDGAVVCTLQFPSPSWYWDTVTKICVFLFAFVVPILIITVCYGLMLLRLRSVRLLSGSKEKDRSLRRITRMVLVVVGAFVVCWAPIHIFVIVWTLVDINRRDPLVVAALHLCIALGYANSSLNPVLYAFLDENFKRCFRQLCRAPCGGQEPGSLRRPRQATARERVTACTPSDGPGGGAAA
Nature of the assay: Rat Brain Delta Opioid Receptor Binding Assay. The settings on record: rat forebrain membranes, ~4 nM [3H]DPDPE, 25° C., 2.5 h; read-out: δ-opioid binding (Ki). Here is the method: as §1, with “delta opioid” for “mu-opioid”, “delta” for “mu”, “˜4” for “˜0.8”, “[^3H]DPDPE” for “[^3H]DAMGO”, “total volume of” for “total”
as §2

T1 sequence (P33535 whole entry): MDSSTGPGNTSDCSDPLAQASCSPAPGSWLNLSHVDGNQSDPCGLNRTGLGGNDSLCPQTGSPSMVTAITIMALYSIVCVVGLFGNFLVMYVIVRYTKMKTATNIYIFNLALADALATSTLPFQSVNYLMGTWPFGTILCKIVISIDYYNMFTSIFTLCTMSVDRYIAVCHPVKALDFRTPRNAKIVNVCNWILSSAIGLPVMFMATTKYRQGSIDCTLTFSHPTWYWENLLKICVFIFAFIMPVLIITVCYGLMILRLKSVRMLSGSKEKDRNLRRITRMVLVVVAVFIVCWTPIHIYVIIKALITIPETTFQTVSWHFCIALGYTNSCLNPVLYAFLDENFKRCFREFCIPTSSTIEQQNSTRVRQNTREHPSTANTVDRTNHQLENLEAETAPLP

`N[C@@H](Cc1ccc(S(N)(=O)=O)cc1)C(=O)N1Cc2ccccc2C[C@H]1c1nc(-c2ccccc2)c[nH]1` [Cmpd 104]: the results for the Ki on mu opioid receptor and at delta opioid receptor were 592 nM and 174 nM, respectively.

As to `NC(Cc1ccc(C(=O)NCCO)cc1)C(=O)N1Cc2ccccc2CC1c1nc(-c2ccccc2)c[nH]1` (stereo not drawn) [Cmpd 112], the figures for the Ki on mu opioid receptor and at delta opioid receptor were 92.3 nM and 43.7 nM, respectively.

Take `Cc1cc(C(N)=O)cc(C)c1CC(N)C(=O)N1CCCCC1c1nc(-c2ccccc2)c[nH]1` (stereo not drawn) [Cmpd 6]: the figures for the Ki at mu opioid receptor and at delta opioid receptor were 0.13 nM and 13.9 nM, respectively.

As for `N[C@@H](Cc1ccc(O)c([N+](=O)[O-])c1)C(=O)N1Cc2ccccc2C[C@H]1c1nc(-c2ccccc2)c[nH]1` [Cmpd 129], the inhibition constant (Ki) turned out to be 25700 nM on mu opioid receptor and 50000 nM at delta opioid receptor.

Consider `CC(C)NC(Cc1ccc(O)cc1)C(=O)N1Cc2ccccc2CC1c1nc(-c2ccccc2)c[nH]1` (stereo not drawn) [Cmpd 138], for which the Ki worked out at 10000 nM on mu opioid receptor and 397 nM on delta opioid receptor.

As to `N[C@@H](Cc1cccc(O)c1)C(=O)N1Cc2ccccc2C[C@H]1c1nc(-c2ccccc2)c[nH]1` [Cmpd 161], the Ki at mu opioid receptor came out at 480 nM; on delta opioid receptor, 133 nM.

As to `CNC(Cc1ccc(O)cc1)C(=O)N1Cc2ccccc2CC1c1nc(-c2ccccc2)c(C)[nH]1` (stereo not drawn) [Cmpd 155], the Ki on mu opioid receptor stood at 23.2 nM; on delta opioid receptor, 0.44 nM.

Turning to `CCN[C@@H](Cc1ccc(O)cc1)C(=O)N1Cc2ccccc2C[C@@H]1c1nc(-c2ccccc2)c[nH]1` [Cmpd 136], the results for the Ki on mu opioid receptor and at delta opioid receptor were 229 nM and 116 nM, respectively.

On to `CC(N)(Cc1ccc(OCc2ccccc2)cc1)C(=O)N1CCCCC1c1nc(-c2ccccc2)c[nH]1` (stereo not drawn) [Cmpd 26], for which the Ki at mu opioid receptor was determined as 87 nM; at delta opioid receptor, 628 nM.

Consider `NC(=O)c1cccc(CC(N)C(=O)N2CCCCC2c2nc(-c3ccccc3)c[nH]2)c1` (stereo not drawn) [Cmpd 7], for which the Ki on mu opioid receptor is 88.3 nM; on delta opioid receptor, 6070 nM.

For the compound `CCN[C@@H](Cc1ccc(O)cc1)C(=O)N1Cc2ccccc2C[C@H]1c1nc(-c2ccccc2)c[nH]1` [Cmpd 137], the Ki at mu opioid receptor came out at 368 nM; at delta opioid receptor, 3.89 nM.

`N#Cc1cccc(C[C@H](N)C(=O)N2CCCC[C@H]2c2nc(-c3ccccc3)c[nH]2)c1` [Cmpd 8]: the Ki on mu opioid receptor stood at 207 nM; at delta opioid receptor, 10000 nM.

As for `N[C@@H](Cc1cccc(O)c1)C(=O)N1CCCC[C@H]1c1nc(-c2ccccc2)c[nH]1` [Cmpd 22], the inhibition constant Ki at mu opioid receptor turned out to be 16 nM; on delta opioid receptor, 433 nM.

With `N[C@@H](Cc1ccc(S(N)(=O)=O)cc1)C(=O)N1CCCC[C@H]1c1nc(-c2ccccc2)c[nH]1` [Cmpd 5], the Ki on mu opioid receptor was 40.8 nM; at delta opioid receptor, 6180 nM.

On to `Cc1[nH]c([C@@H]2Cc3ccccc3CN2C(=O)[C@@H](N)Cc2ccc([N+](=O)[O-])cc2)nc1-c1ccccc1` [Cmpd 120], for which the inhibition constant (Ki) on mu opioid receptor is 1350 nM; on delta opioid receptor, 674 nM.

Take `CN1CCN(C(=O)c2ccc(C[C@H](N)C(=O)N3CCCC[C@H]3c3nc(-c4ccccc4)c[nH]3)cc2)CC1` [Cmpd 3]: the Ki at mu opioid receptor and on delta opioid receptor was 10000 nM in each case.

`CN[C@@H](Cc1ccc(O)cc1)C(=O)N1Cc2ccccc2C[C@H]1c1nc(-c2ccccc2)c(C)[nH]1` [Cmpd 157]: the Ki is 30 nM on mu opioid receptor and 0.57 nM at delta opioid receptor.

`Cc1[nH]c([C@@H]2Cc3ccccc3CN2C(=O)[C@@H](N)Cc2ccc(F)cc2)nc1-c1ccccc1` [Cmpd 143]: the inhibition constant (Ki) came out at 12800 nM at mu opioid receptor and 687 nM at delta opioid receptor.

With `Cc1cc(O)cc(C)c1CC(N)C(=O)N1CCCCC1c1nc(-c2ccccc2)no1` (stereo not drawn) [Cmpd 19], the results for the Ki at mu opioid receptor and on delta opioid receptor were 0.14 nM and 46.3 nM, respectively.

As to `CN(C)C(=O)c1ccc(C[C@H](N)C(=O)N2CCCC[C@H]2c2nc(-c3ccccc3)c[nH]2)cc1` [Cmpd 4], the Ki on mu opioid receptor is 135 nM; on delta opioid receptor, 764 nM.

As to `N[C@@H](Cc1ccc(C(=O)Nc2ccccc2)cc1)C(=O)N1CCCC[C@H]1c1nc(-c2ccccc2)c[nH]1` [Cmpd 13], the inhibition constant Ki on mu opioid receptor turned out to be 27.7 nM; on delta opioid receptor it was 656 nM.

As to `N[C@@H](Cc1ccc(O)c([N+](=O)[O-])c1)C(=O)N1CCCC[C@H]1c1nc(-c2ccccc2)c[nH]1` [Cmpd 17], the results for the inhibition constant Ki at mu opioid receptor and on delta opioid receptor were 320 nM and 5120 nM, respectively.

Take `Cc1cc(O)cc(C)c1C[C@H](N)C(=O)N1Cc2ccccc2C[C@H]1c1nc(-c2ccccc2)c(Br)[nH]1` [Cmpd 132]: the inhibitory constant (Ki) on mu opioid receptor was 0.17 nM; at delta opioid receptor, 0.1 nM.

Consider `CNC(=O)c1ccc(C[C@H](N)C(=O)N2CCCC[C@H]2c2nc(-c3ccccc3)c[nH]2)cc1` [Cmpd 21], for which the inhibition constant Ki on mu opioid receptor turned out to be 0.22 nM; on delta opioid receptor, 33.9 nM.

`Cc1cc(O)cc(C)c1C[C@H](N)C(=O)N1Cc2ccccc2C[C@H]1c1nc(-c2ccccc2)c(Cl)[nH]1` [Cmpd 133]: the Ki at mu opioid receptor came to 0.18 nM; at delta opioid receptor it was 0.12 nM.

In the case of `NC(=O)c1ccc(CC(N)C(=O)N2Cc3ccccc3CC2c2nc(-c3ccccc3)c[nH]2)cc1` (stereo not drawn) [Cmpd 115], the Ki at mu opioid receptor amounted to 23.2 nM; on delta opioid receptor, 1.3 nM.

In the case of `CC(=O)c1ccc(C[C@H](N)C(=O)N2CCCC[C@H]2c2nc(-c3ccccc3)c[nH]2)cc1` [Cmpd 10], the Ki on mu opioid receptor amounted to 23.6 nM; at delta opioid receptor it was 933 nM.

`N[C@@H](Cc1ccc(O)cc1)C(=O)N1CCCC[C@H]1c1cccc(-c2ccccc2)c1` [Cmpd 32]: the inhibition constant Ki at mu opioid receptor worked out at 541 nM; at delta opioid receptor it was 5900 nM.

Consider `CN(C)C(=O)c1ccc(C[C@H](N)C(=O)N2Cc3ccccc3C[C@H]2c2nc(-c3ccccc3)c[nH]2)cc1` [Cmpd 103], for which the results for the Ki on mu opioid receptor and on delta opioid receptor were 900 nM and 578 nM, respectively.

Consider `NCc1ccc(C[C@H](N)C(=O)N2CCCC[C@H]2c2nc(-c3ccccc3)c[nH]2)cc1` [Cmpd 18], for which the values for the inhibition constant (Ki) on mu opioid receptor and on delta opioid receptor were 409 nM and 7520 nM, respectively.

Turning to `Cc1cc(O)cc(C)c1C[C@H](N)C(=O)N1Cc2ccccc2C[C@H]1c1nc(-c2ccccc2)c(C)[nH]1` [Cmpd 149], the results for the inhibition constant (Ki) at mu opioid receptor and on delta opioid receptor were 3 nM and 0.8 nM, respectively.

As for `N[C@@H](Cc1ccc(O)cc1)C(=O)N1CCCC[C@H]1c1nc(-c2ccccc2)no1` [Cmpd 20], the inhibitory constant (Ki) on mu opioid receptor was 231 nM; on delta opioid receptor, 10000 nM.

In the case of `N[C@@H](Cc1cc(F)c(O)c(F)c1)C(=O)N1Cc2ccccc2C[C@H]1c1nc(-c2ccccc2)c[nH]1` [Cmpd 109], the Ki at mu opioid receptor stood at 167 nM; on delta opioid receptor, 12.6 nM.

Consider `Cc1cc(C(N)=O)cc(C)c1C[C@H](N)C(=O)N1Cc2ccccc2C[C@H]1c1nc(-c2ccccc2)c[nH]1` [Cmpd 105], for which the Ki at mu opioid receptor stood at 1.44 nM; at delta opioid receptor, 0.06 nM.

In the case of `N[C@@H](Cc1ccc(O)cc1)C(=O)N1CCCC[C@@H]1c1cccc(-c2ccccc2)c1` [Cmpd 31], the inhibitory constant (Ki) at mu opioid receptor came to 565 nM; on delta opioid receptor, 10000 nM.

Turning to `CC(N)(Cc1ccc(O)cc1)C(=O)N1Cc2ccccc2CC1c1nc(-c2ccccc2)c[nH]1` (stereo not drawn) [Cmpd 121], the values for the inhibition constant Ki on mu opioid receptor and on delta opioid receptor were 38 nM and 1.32 nM, respectively.

`N#Cc1ccc(C[C@H](N)C(=O)N2CCCC[C@H]2c2nc(-c3ccccc3)c[nH]2)cc1` [Cmpd 35]: the inhibitory constant (Ki) on mu opioid receptor was 869 nM; on delta opioid receptor it was 476 nM.

As to `N[C@@H](Cc1cc(F)c(O)c(F)c1)C(=O)N1CCCC[C@H]1c1nc(-c2ccccc2)c[nH]1` [Cmpd 24], the inhibition constant (Ki) on mu opioid receptor turned out to be 9.27 nM; at delta opioid receptor, 5660 nM.

For `COc1cc(C)c(C[C@H](N)C(=O)N2CCCC[C@H]2c2nc(-c3ccccc3)c[nH]2)c(C)c1` [Cmpd 27], the Ki on mu opioid receptor came out at 8.56 nM; on delta opioid receptor, 1000 nM.
